From the supplement of paper PMC10307832

How the values were obtained:
Assay in all cases: relative viability (nuclei count vs DMSO), 5 days (fraction); higher = more cells survive
IU1-47 + Dasatinib = compound: CC1=CC(=C(N1C2=CC=C(C=C2)Cl)C)C(=O)CN3CCCCC3 [IU1-47] + Cc1nc(Nc2ncc(C(=O)Nc3c(C)cccc3Cl)s2)cc(N2CCN(CCO)CC2)n1 [Dasatinib] (partner 0.075 µM)
Procedure, shortened: (§1)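 For relative viability, nuclei counts in treated wells were divided by those in vehicle wells. Lung cancer cell lines had been pin-tool dosed in 1536-well plates the day after seeding and cultured for 5 days, then fixed and stained in one step (final 0.05% Triton X-100, 1% formaldehyde, 1 ug/ml Hoechst) and imaged at 4×. Doses were one drug alone or a fixed anchor-drug dose plus five library-drug doses (not always all listed) in √10 steps, and values are duplicate-plate medians.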

FG-4592 + Phenformin = compound: Cc1nc(C(=O)NCC(=O)O)c(O)c2ccc(Oc3ccccc3)cc12 [FG-4592] + N=C(N)NC(=N)NCCc1ccccc1 [Phenformin] (partner 250 µM)
Procedure, shortened: as §1

FG-4592 + Foretinib = compound: Cc1nc(C(=O)NCC(=O)O)c(O)c2ccc(Oc3ccccc3)cc12 [FG-4592] + COc1cc2c(Oc3ccc(NC(=O)C4(C(=O)Nc5ccc(F)cc5)CC4)cc3F)ccnc2cc1OCCCN1CCOCC1 [Foretinib] (partner 0.25 µM)
Procedure, shortened: as §1

IU1-47 + Alpelisib = compound: CC1=CC(=C(N1C2=CC=C(C=C2)Cl)C)C(=O)CN3CCCCC3 [IU1-47] + Cc1nc(NC(=O)N2CCC[C@H]2C(N)=O)sc1-c1ccnc(C(C)(C)C(F)(F)F)c1 [Alpelisib] (partner 2 µM)
Procedure, shortened: as §1

Cell Line	relative viability (IU1-47 + Dasatinib; first compound 0.08 µM)	relative viability (IU1-47 + Dasatinib; first compound 0.253 µM)	relative viability (IU1-47 + Dasatinib; first compound 0.8 µM)	relative viability (IU1-47 + Dasatinib; first compound 2.53 µM)	relative viability (IU1-47 + Dasatinib; first compound 8 µM)	relative viability (FG-4592 + Phenformin; first compound 0.08 µM)	relative viability (FG-4592 + Phenformin; first compound 0.253 µM)	relative viability (FG-4592 + Phenformin; first compound 0.8 µM)	relative viability (FG-4592 + Phenformin; first compound 2.53 µM)	relative viability (FG-4592 + Phenformin; first compound 8 µM)	relative viability (FG-4592 + Foretinib; first compound 0.08 µM)	relative viability (FG-4592 + Foretinib; first compound 0.253 µM)	relative viability (FG-4592 + Foretinib; first compound 0.8 µM)	relative viability (FG-4592 + Foretinib; first compound 2.53 µM)	relative viability (FG-4592 + Foretinib; first compound 8 µM)	relative viability (IU1-47 + Alpelisib; first compound 0.08 µM)	relative viability (IU1-47 + Alpelisib; first compound 0.253 µM)	relative viability (IU1-47 + Alpelisib; first compound 0.8 µM)	relative viability (IU1-47 + Alpelisib; first compound 2.53 µM)	relative viability (IU1-47 + Alpelisib; first compound 8 µM)
NCI-H1623	0.588	0.571	0.588	0.591	0.555	0.607	0.609	0.595	0.517	0.542	0.825	0.846	0.795	0.731	0.724					
NCI-H1650	0.269	0.311	0.283	0.292	0.27	0.464	0.448	0.338	0.586	0.51	1.24	0.903	1.21	1.33	1.04					
NCI-H1703												0.312	0.34	0.321	0.339	0.264	0.273	0.286	0.355	0.301
NCI-H1792	0.937	0.876	1.03	0.556	0.803	0.355	0.247		0.352	0.24						0.824	0.708	0.647	0.444	0.55
NCI-H2342	0.328	0.344	0.32	0.301	0.307	0.521	0.531	0.519	0.613	0.469	1	1.01	1.06	0.959	0.993					
SW 900	0.664	0.529	0.7	0.556	0.742	0.584	0.687	0.439	0.47	0.586	0.823	0.947	1.08	1.17	0.833					
